Measurements from publication PMC5218480 (PLoS ONE, 2017).

Tested on: MV-4-11 cells
Test: Gene expression microarray analysis (Affymetrix PrimeView) and GSEA
Type: cell-based, human
Set-up: RFU PODN (11730768_x_at) / Fold change /veh PODN (11730768_x_at) / RFU LINC00158 (11744669_a_at) / Fold change /veh LINC00158 (11744669_a_at) / RFU DUSP10 (11751237_a_at) / Fold change /veh DUSP10 (11751237_a_at) / RFU ID3 (11757404_x_at) / Fold change /veh ID3 (11757404_x_at) / RFU PLEKHG5 (11737974_s_at) / Fold change /veh PLEKHG5 (11737974_s_at) / RFU LRRC4B (11730491_at) / Fold change /veh LRRC4B (11730491_at) / RFU GIMAP4 (11747438_a_at) / Fold change /veh GIMAP4 (11747438_a_at) / RFU KRT8 (11758183_x_at) / Fold change /veh KRT8 (11758183_x_at) / RFU CNN1 (11734310_a_at) / Fold change /veh CNN1 (11734310_a_at) / RFU VPS37D (11726825_at) / Fold change /veh VPS37D (11726825_at) / RFU C10orf10 (11716522_x_at) / Fold change /veh C10orf10 (11716522_x_at) / RFU KIR2DL2 /// KIR2DL4 /// KIR2DL5A /// KIR2DL5B /// KIR2DS1 /// KIR2DS2 /// KIR2DS3 /// KIR2DS4 /// KIR3DL3 /// KIR3DL3 /// KIR3DS1 (11738374_at) / Fold change /veh KIR2DL2 /// KIR2DL4 /// KIR2DL5A /// KIR2DL5B /// KIR2DS1 /// KIR2DS2 /// KIR2DS3 /// KIR2DS4 /// KIR3DL3 /// KIR3DL3 /// KIR3DS1 (11738374_at) / RFU C1QL1 (11718748_at) / Fold change /veh C1QL1 (11718748_at) / RFU TMPRSS4 (11747572_a_at) / Fold change /veh TMPRSS4 (11747572_a_at) / RFU HAMP (11756126_x_at) / Fold change /veh HAMP (11756126_x_at) / RFU RNFT2 (11725882_a_at) / Fold change /veh RNFT2 (11725882_a_at) / RFU NR4A2 (11747474_a_at) / Fold change /veh NR4A2 (11747474_a_at) / RFU ABCC12 (11746883_a_at) / Fold change /veh ABCC12 (11746883_a_at) / RFU TMEM136 (11760407_x_at) / Fold change /veh TMEM136 (11760407_x_at) / RFU CLDN22 /// WWC2 (11732394_at) / Fold change /veh CLDN22 /// WWC2 (11732394_at) / RFU HLA-DPB1 (11760878_x_at) / Fold change /veh HLA-DPB1 (11760878_x_at) / RFU SPINT1 (11716480_a_at) / Fold change /veh SPINT1 (11716480_a_at) / RFU GAP43 (11754022_s_at) / Fold change /veh GAP43 (11754022_s_at) / RFU A4GNT (11735810_at) / Fold change /veh A4GNT (11735810_at) / RFU PRB3 (11715151_x_at) / Fold change /veh PRB3 (11715151_x_at) / RFU TUBB4B (11761932_at) / Fold change /veh TUBB4B (11761932_at) / RFU CAPN14 (11732068_a_at) / Fold change /veh CAPN14 (11732068_a_at) / RFU TMCC2 (11721928_a_at) / Fold change /veh TMCC2 (11721928_a_at) / RFU IRGQ (11745062_a_at) / Fold change /veh IRGQ (11745062_a_at) / RFU FAM174B (11720279_a_at) / Fold change /veh FAM174B (11720279_a_at) / RFU TMPRSS4 (11748680_a_at) / Fold change /veh TMPRSS4 (11748680_a_at) / RFU FAM212B (11763350_a_at) / Fold change /veh FAM212B (11763350_a_at) / RFU PLEKHG5 (11743358_a_at) / Fold change /veh PLEKHG5 (11743358_a_at) / RFU ZSCAN30 (11745921_a_at) / Fold change /veh ZSCAN30 (11745921_a_at) / RFU CMKLR1 (11741424_a_at) / Fold change /veh CMKLR1 (11741424_a_at) / RFU LOC101060620 /// MAPK8IP1 (11723275_at) / Fold change /veh LOC101060620 /// MAPK8IP1 (11723275_at) / RFU SPTSSB (11747773_x_at) / Fold change /veh SPTSSB (11747773_x_at) / RFU PRSS12 (11739890_at) / Fold change /veh PRSS12 (11739890_at) / RFU BIN1 (11741810_x_at) / Fold change /veh BIN1 (11741810_x_at) / RFU WNT11 (11732464_a_at) / Fold change /veh WNT11 (11732464_a_at) / RFU C10orf10 (11716521_a_at) / Fold change /veh C10orf10 (11716521_a_at) / RFU C5orf56 (11738089_at) / Fold change /veh C5orf56 (11738089_at) / RFU CYB561 (11721691_x_at) / Fold change /veh CYB561 (11721691_x_at) / RFU ANKRD19P (11752326_a_at) / Fold change /veh ANKRD19P (11752326_a_at) / RFU OR2T12 /// OR2T33 /// OR2T8 (11738714_s_at) / Fold change /veh OR2T12 /// OR2T33 /// OR2T8 (11738714_s_at) / RFU VCAN (11748164_a_at) / Fold change /veh VCAN (11748164_a_at) / RFU JSRP1 (11732532_at) / Fold change /veh JSRP1 (11732532_at) / RFU KRTAP10-11 (11738290_x_at) / Fold change /veh KRTAP10-11 (11738290_x_at) / RFU MYO3A (11730013_a_at) / Fold change /veh MYO3A (11730013_a_at) / RFU EBF3 (11725865_a_at) / Fold change /veh EBF3 (11725865_a_at) / RFU CAMK2N1 (11719241_x_at) / Fold change /veh CAMK2N1 (11719241_x_at) / RFU C5orf56 (11738088_a_at) / Fold change /veh C5orf56 (11738088_a_at) / RFU OLFML3 (11715873_a_at) / Fold change /veh OLFML3 (11715873_a_at) / RFU LOC100653217 /// NTM (11731650_a_at) / Fold change /veh LOC100653217 /// NTM (11731650_a_at) / RFU MAPK11 (11762145_a_at) / Fold change /veh MAPK11 (11762145_a_at) / RFU FIZ1 (11724087_x_at) / Fold change /veh FIZ1 (11724087_x_at) / RFU OASL (11726364_x_at) / Fold change /veh OASL (11726364_x_at) / RFU SOX15 (11748057_x_at) / Fold change /veh SOX15 (11748057_x_at) / RFU CD79A (11719716_a_at) / Fold change /veh CD79A (11719716_a_at) / RFU HIST1H1D (11736915_at) / Fold change /veh HIST1H1D (11736915_at) / RFU CASKIN2 (11723855_a_at) / Fold change /veh CASKIN2 (11723855_a_at) / RFU LOC730098 (11760151_x_at) / Fold change /veh LOC730098 (11760151_x_at) / RFU OR4N2 (11742367_at) / Fold change /veh OR4N2 (11742367_at) / RFU PRRT2 (11749266_a_at) / Fold change /veh PRRT2 (11749266_a_at) / RFU SNX32 (11753110_a_at) / Fold change /veh SNX32 (11753110_a_at) / RFU CDHR5 (11726645_a_at) / Fold change /veh CDHR5 (11726645_a_at) / RFU RCAN1 (11760418_a_at) / Fold change /veh RCAN1 (11760418_a_at) / RFU FAM167A (11723789_a_at) / Fold change /veh FAM167A (11723789_a_at) / RFU FAM26E (11764081_at) / Fold change /veh FAM26E (11764081_at) / RFU ISYNA1 (11749810_s_at) / Fold change /veh ISYNA1 (11749810_s_at) / RFU ACY1 (11761880_at) / Fold change /veh ACY1 (11761880_at) / RFU 11764098_at / Fold change /veh 11764098_at / RFU SAMD14 (11745864_x_at) / Fold change /veh SAMD14 (11745864_x_at) / RFU NPB (11741838_a_at) / Fold change /veh NPB (11741838_a_at) / RFU TMPRSS6 (11731388_a_at) / Fold change /veh TMPRSS6 (11731388_a_at) / RFU KRTAP10-2 (11738614_at) / Fold change /veh KRTAP10-2 (11738614_at) / RFU ARHGAP8 /// PRR5-ARHGAP8 (11727945_x_at) / Fold change /veh ARHGAP8 /// PRR5-ARHGAP8 (11727945_x_at) / RFU KRTAP5-7 /// NADSYN1 (11734609_at) / Fold change /veh KRTAP5-7 /// NADSYN1 (11734609_at) / RFU RASL12 (11751679_a_at) / Fold change /veh RASL12 (11751679_a_at) / RFU CDKN2B (11736163_a_at) / Fold change /veh CDKN2B (11736163_a_at) / RFU PRF1 (11729649_at) / Fold change /veh PRF1 (11729649_at) / RFU, ZNF638 /// ZNF638-IT1 / Fold change vs veh, ZNF638 /// ZNF638-IT1 / RFU, PANK3 / Fold change vs veh, PANK3 / RFU, SH3YL1 / Fold change vs veh, SH3YL1 / RFU, ZEB2 / Fold change vs veh, ZEB2 / RFU, NRIP1 / Fold change vs veh, NRIP1 / RFU, PTTG1IP / Fold change vs veh, PTTG1IP / RFU, CAPN2 / Fold change vs veh, CAPN2 / RFU, MED14 / Fold change vs veh, MED14 / RFU, SNORA58 / Fold change vs veh, SNORA58 / RFU, C1orf63 / Fold change vs veh, C1orf63 / RFU, LRRFIP1 / Fold change vs veh, LRRFIP1 / RFU, NDUFAF7 / Fold change vs veh, NDUFAF7 / RFU, SLC12A2 / Fold change vs veh, SLC12A2 / RFU, IBTK / Fold change vs veh, IBTK / RFU, ESF1 / Fold change vs veh, ESF1 / Fold change vs veh, TMEM50B / RFU, TAOK1 / Fold change vs veh, TAOK1 / RFU, ACBD3 / Fold change vs veh, ACBD3 / RFU, TMA16 / Fold change vs veh, TMA16 / RFU, RWDD3 / Fold change vs veh, RWDD3 / RFU, BCAT1 / Fold change vs veh, BCAT1 / RFU, EDEM3 / Fold change vs veh, EDEM3 / RFU, TMEM33 / Fold change vs veh, TMEM33 / RFU, WDR75 / Fold change vs veh, WDR75 / RFU, AHCTF1 / Fold change vs veh, AHCTF1 / RFU, TFRC / Fold change vs veh, TFRC / RFU, ZDHHC17 / Fold change vs veh, ZDHHC17 / RFU, NOM1 / Fold change vs veh, NOM1 / RFU, ARL8B / Fold change vs veh, ARL8B / RFU, ZBTB11 / Fold change vs veh, ZBTB11 / RFU, TAMM41 / Fold change vs veh, TAMM41 / RFU, KIAA1704 /// LOC100996395 / Fold change vs veh, KIAA1704 /// LOC100996395 / RFU, ING1 / Fold change vs veh, ING1 / RFU, TRMT61B / Fold change vs veh, TRMT61B / RFU, FUBP3 / Fold change vs veh, FUBP3 / RFU, TP53 / Fold change vs veh, TP53 / RFU, TNKS2 / Fold change vs veh, TNKS2 / RFU, ZFP14 / Fold change vs veh, ZFP14 / RFU, ACTR2 / Fold change vs veh, ACTR2 / RFU, PPP3R1 / Fold change vs veh, PPP3R1 / RFU, PIK3R1 / Fold change vs veh, PIK3R1 / RFU, HNRNPA1 / Fold change vs veh, HNRNPA1 / RFU, RNF170 / Fold change vs veh, RNF170 / RFU, ZNF28 / Fold change vs veh, ZNF28 / RFU, RNGTT / Fold change vs veh, RNGTT / RFU, OGT / Fold change vs veh, OGT / RFU, BRD1 / Fold change vs veh, BRD1 / RFU, MARS / Fold change vs veh, MARS / RFU, ZNF655 / Fold change vs veh, ZNF655 / RFU, FAHD1 / Fold change vs veh, FAHD1 / RFU, BDP1 / Fold change vs veh, BDP1 / RFU, LRRCC1 / Fold change vs veh, LRRCC1 / RFU, ARID1A / Fold change vs veh, ARID1A / RFU, ZNF146 / Fold change vs veh, ZNF146 / RFU, ZNF330 / Fold change vs veh, ZNF330 / RFU, GPN3 / Fold change vs veh, GPN3 / RFU, C9orf123 / Fold change vs veh, C9orf123 / RFU, N4BP2L2 / Fold change vs veh, N4BP2L2 / RFU, ARFIP1 / Fold change vs veh, ARFIP1 / RFU, FAM179B / Fold change vs veh, FAM179B / RFU, BCL10 / Fold change vs veh, BCL10 / RFU, UHRF1BP1L / Fold change vs veh, UHRF1BP1L / RFU, BET1 / Fold change vs veh, BET1 / RFU, CNOT2 / Fold change vs veh, CNOT2 / RFU, ZNF268 / Fold change vs veh, ZNF268 / Fold change vs veh, ZNF507 / RFU, DGCR2 / Fold change vs veh, DGCR2 / RFU, WDSUB1 / Fold change vs veh, WDSUB1 / Fold change vs veh, HSP90B1 /// MIR3652 / RFU, ADSS / Fold change vs veh, ADSS / RFU, GK / Fold change vs veh, GK / RFU, ZNF148 / Fold change vs veh, ZNF148 / RFU, TAF9 / Fold change vs veh, TAF9 / RFU, SLC1A5 / Fold change vs veh, SLC1A5 / RFU, SLMO2 / Fold change vs veh, SLMO2 / RFU, ABCC4 / Fold change vs veh, ABCC4 / RFU, LOC101060439 /// RAP1B / Fold change vs veh, LOC101060439 /// RAP1B / RFU, RFX7 / Fold change vs veh, RFX7 / RFU, GTPBP10 / Fold change vs veh, GTPBP10 / RFU, CNEP1R1 / Fold change vs veh, CNEP1R1 / RFU, BIVM-ERCC5 /// ERCC5 / Fold change vs veh, BIVM-ERCC5 /// ERCC5 / RFU, ILF3 / Fold change vs veh, ILF3 / RFU 11762660_at / Fold change /veh 11762660_at / RFU VCAN (11757783_s_at) / Fold change /veh VCAN (11757783_s_at) / RFU DDX43 (11728927_at) / Fold change /veh DDX43 (11728927_at) / RFU KRT8 (11758188_x_at) / Fold change /veh KRT8 (11758188_x_at) / RFU NKD1 (11759106_at) / Fold change /veh NKD1 (11759106_at) / RFU SRD5A1 (11742802_a_at) / Fold change /veh SRD5A1 (11742802_a_at) / RFU TPSAB1 /// TPSB2 (11721975_s_at) / Fold change /veh TPSAB1 /// TPSB2 (11721975_s_at) / RFU GSTM3 (11746129_a_at) / Fold change /veh GSTM3 (11746129_a_at) / RFU IL23R (11737362_x_at) / Fold change /veh IL23R (11737362_x_at) / RFU TMEM51 (11727254_a_at) / Fold change /veh TMEM51 (11727254_a_at) / RFU PIWIL2 (11732686_x_at) / Fold change /veh PIWIL2 (11732686_x_at) / RFU ORM1 (11744905_x_at) / Fold change /veh ORM1 (11744905_x_at) / RFU CCDC152 (11743942_at) / Fold change /veh CCDC152 (11743942_at) / RFU ECM1 (11717891_a_at) / Fold change /veh ECM1 (11717891_a_at) / RFU IL23R (11748794_a_at) / Fold change /veh IL23R (11748794_a_at) / RFU TNFAIP8L3 (11732012_x_at) / Fold change /veh TNFAIP8L3 (11732012_x_at) / RFU MBOAT4 (11741988_at) / Fold change /veh MBOAT4 (11741988_at) / RFU 11764193_at / Fold change /veh 11764193_at / RFU TMEM53 (11763286_at) / Fold change /veh TMEM53 (11763286_at) / RFU MAGEB2 (11727129_at) / Fold change /veh MAGEB2 (11727129_at) / RFU TMEM200A (11744735_a_at) / Fold change /veh TMEM200A (11744735_a_at) / RFU CCDC152 (11751479_a_at) / Fold change /veh CCDC152 (11751479_a_at) / RFU FAM211A (11726209_a_at) / Fold change /veh FAM211A (11726209_a_at) / RFU RGS16 (11746705_a_at) / Fold change /veh RGS16 (11746705_a_at) / RFU VCAN (11755009_s_at) / Fold change /veh VCAN (11755009_s_at) / RFU RHOB (11743442_s_at) / Fold change /veh RHOB (11743442_s_at) / RFU RGS16 (11720943_a_at) / Fold change /veh RGS16 (11720943_a_at) / RFU RGS16 (11720944_at) / Fold change /veh RGS16 (11720944_at) / RFU, VPS4B / Fold change vs veh, VPS4B / RFU, CREB1 / Fold change vs veh, CREB1 / RFU, DNAJC13 / Fold change vs veh, DNAJC13 / RFU, GNAQ / Fold change vs veh, GNAQ / RFU, CDK5R1 / Fold change vs veh, CDK5R1 / RFU, ZRANB3 / Fold change vs veh, ZRANB3 / RFU, CUL4A / Fold change vs veh, CUL4A / RFU, CCNY / Fold change vs veh, CCNY / RFU, UFL1 / Fold change vs veh, UFL1 / RFU, COG3 / Fold change vs veh, COG3 / RFU, DIAPH2 / Fold change vs veh, DIAPH2 / RFU, SKA2 / Fold change vs veh, SKA2 / RFU, AFF3 / Fold change vs veh, AFF3 / RFU, LMF1 / Fold change vs veh, LMF1 / RFU, IPO11 / Fold change vs veh, IPO11 / RFU, DFFB / Fold change vs veh, DFFB / RFU, FOXP1 / Fold change vs veh, FOXP1 / RFU, CARD8 / Fold change vs veh, CARD8 / RFU, STRN3 / Fold change vs veh, STRN3 / RFU, ADK / Fold change vs veh, ADK / RFU, RASSF2 / Fold change vs veh, RASSF2 / RFU, WIPF1 / Fold change vs veh, WIPF1 / RFU, LARP1B / Fold change vs veh, LARP1B / RFU, RASA1 / Fold change vs veh, RASA1 / RFU, RB1 / Fold change vs veh, RB1 / RFU, PPFIA1 / Fold change vs veh, PPFIA1 / RFU, MAT2A / Fold change vs veh, MAT2A / RFU, CCT5 / Fold change vs veh, CCT5 / RFU, WDR92 / Fold change vs veh, WDR92 / RFU, CUX1 / Fold change vs veh, CUX1 / RFU, TTC7A / Fold change vs veh, TTC7A / RFU, TMEM135 / Fold change vs veh, TMEM135 / RFU, DEPTOR / Fold change vs veh, DEPTOR / RFU, CPM / Fold change vs veh, CPM / RFU, DNAJB6 / Fold change vs veh, DNAJB6 / RFU, CACNA2D3 / Fold change vs veh, CACNA2D3 / RFU, DTX4 / Fold change vs veh, DTX4 / RFU, TFCP2 / Fold change vs veh, TFCP2 / RFU, GMCL1 /// GMCL1P1 / Fold change vs veh, GMCL1 /// GMCL1P1 / RFU, AEBP2 / Fold change vs veh, AEBP2 / RFU, SNHG1 /// SNORD22 /// SNORD25 /// SNORD26 /// SNORD27 /// SNORD28 /// SNORD29 /// SNORD31 / Fold change vs veh, SNHG1 /// SNORD22 /// SNORD25 /// SNORD26 /// SNORD27 /// SNORD28 /// SNORD29 /// SNORD31 / Fold change (Aza/veh), C12orf56 (ProbeSet 11735607_a_at) / Fold change (ACY-1035/veh), C12orf56 (ProbeSet 11735607_a_at) / Fold change (Aza/veh), FGFR1OP (ProbeSet 11751329_s_at) / Fold change (ACY-1035/veh), FGFR1OP (ProbeSet 11751329_s_at) / Fold change (Aza/veh), VPS36 (ProbeSet 11739960_a_at) / Fold change (ACY-1035/veh), VPS36 (ProbeSet 11739960_a_at) / RFU SYPL1 (11715823_x_at) / Fold change /veh SYPL1 (11715823_x_at) / RFU IGFBP7 (11715501_s_at) / Fold change /veh IGFBP7 (11715501_s_at) / RFU REEP3 (11722064_at) / Fold change /veh REEP3 (11722064_at) / RFU IGLL1 (11728026_x_at) / Fold change /veh IGLL1 (11728026_x_at): dose or concentration left out as unconfirmed
Conditions: gene VPS36; ACY-1035 vs DMSO; LIST F

Nc1ccc(-c2cccs2)cc1NC(=O)c1ccc2c(c1)cc(C1CC1)n2CCN1CCOCC1 [ACY-1035]
Fold change (ACY-1035/veh), VPS36 (ProbeSet 11739960_a_at): 0.53
